Results published in ChEMBL document CHEMBL1781891, “An efficient preparation of N-alkyl-2-benzazepine derivatives and investigation of their biological activity” (Bioorg Med Chem Lett, 2009).
Calls of active or inactive are those of the source. The rule behind the calls is not given here.

Test system: HaCaT
Assay: Induction of cell migration in human HaCaT cells at 30 uM by in vitro wound healing assay
Format: functional, cell-based

Compound | Activity
CCCN1Cc2cc(OC)ccc2CC(C)C1=O (stereo not drawn) | inactive
COc1ccc2c(c1)CNC(=O)C(C)C2 (stereo not drawn) | Active
COc1ccc2c(c1)CN(C(C)C)C(=O)C(C)C2 (stereo not drawn) | inactive
COc1ccc2c(c1)CN(Cc1ccccc1)C(=O)C(C)C2 (stereo not drawn) | inactive
COc1ccc2c(c1)CN(C)C(=O)C(C)C2 (stereo not drawn) | Active
CCCCCN1Cc2cc(OC)ccc2CC(C)C1=O (stereo not drawn) | inactive
CCCCN1Cc2cc(OC)ccc2CC(C)C1=O (stereo not drawn) | inactive
CCN1Cc2cc(OC)ccc2CC(C)C1=O (stereo not drawn) | Active
